Test results from PubChem BioAssay (NCI).
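How tested: cells in 96-well plates exposed to compound for 48 hours at five concentrations. TGI denotes the concentration required for complete inhibition of growth.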

Experiments:
Assay in all cases: NCI anticancer screen, dose series, 48 h
786-0 renal = test system: 786-0 renal
A498 renal = test system: A498 renal
A549 NSCLC = test system: A549 NSCLC
ACHN renal = test system: ACHN renal
BT-549 breast = test system: BT-549 breast
CAKI-1 renal = test system: CAKI-1 renal
CCRF-CEM leukemia = test system: CCRF-CEM leukemia
COLO 205 colon = test system: COLO 205 colon
DU-145 prostate = test system: DU-145 prostate
EKVX NSCLC = test system: EKVX NSCLC
HCC-2998 colon = test system: HCC-2998 colon
HCT-116 colon = test system: HCT-116 colon
HCT-15 colon = test system: HCT-15 colon
HL-60(TB) leukemia = test system: HL-60(TB) leukemia
HOP-62 NSCLC = test system: HOP-62 NSCLC
HOP-92 NSCLC = test system: HOP-92 NSCLC
HS 578T breast = test system: HS 578T breast
HT29 colon = test system: HT29 colon
IGROV1 ovarian = test system: IGROV1 ovarian
K-562 leukemia = test system: K-562 leukemia
KM12 colon = test system: KM12 colon
LOX IMVI melanoma = test system: LOX IMVI melanoma
M14 melanoma = test system: M14 melanoma
MALME-3M melanoma = test system: MALME-3M melanoma
MCF7 breast = test system: MCF7 breast
MDA-MB-231 breast = test system: MDA-MB-231 breast
MDA-MB-435 = test system: MDA-MB-435
MDA-N = test system: MDA-N
MOLT-4 leukemia = test system: MOLT-4 leukemia
NCI-H23 lung = test system: NCI-H23 lung
NCI-H460 lung = test system: NCI-H460 lung
NCI-H522 lung = test system: NCI-H522 lung
NCI/ADR-RES ovarian = test system: NCI/ADR-RES ovarian
OVCAR-3 ovarian = test system: OVCAR-3 ovarian
OVCAR-4 ovarian = test system: OVCAR-4 ovarian
OVCAR-5 ovarian = test system: OVCAR-5 ovarian
OVCAR-8 ovarian = test system: OVCAR-8 ovarian
PC-3 prostate = test system: PC-3 prostate
RPMI-8226 leukemia = test system: RPMI-8226 leukemia
RXF 393 renal = test system: RXF 393 renal
SF-268 CNS = test system: SF-268 CNS
SF-295 CNS = test system: SF-295 CNS
SK-MEL-2 melanoma = test system: SK-MEL-2 melanoma
SK-MEL-28 melanoma = test system: SK-MEL-28 melanoma
SK-MEL-5 melanoma = test system: SK-MEL-5 melanoma
SK-OV-3 ovarian = test system: SK-OV-3 ovarian
SN12C renal = test system: SN12C renal
SNB-19 CNS = test system: SNB-19 CNS
SNB-75 CNS = test system: SNB-75 CNS
SW-620 colon = test system: SW-620 colon
T-47D breast = test system: T-47D breast
TK-10 renal = test system: TK-10 renal
U251 CNS = test system: U251 CNS
UACC-257 melanoma = test system: UACC-257 melanoma
UACC-62 melanoma = test system: UACC-62 melanoma
UO-31 renal = test system: UO-31 renal
NCI-H226 lung = test system: NCI-H226 lung
SF-539 CNS = test system: SF-539 CNS
SR leukemia = test system: SR leukemia

Question: What does the source list for `O=C1/C(=C/c2ccccc2S)N=C(c2ccccc2)N1c1nc2ccc(Sc3ccccc3)cc2[nH]1`?
Answer: TGI (786-0 renal): 87.1 µM; TGI (A498 renal): > 100 µM; TGI (A549 NSCLC): > 100 µM; TGI (ACHN renal): > 100 µM; TGI (BT-549 breast): 61.1 µM; TGI (CAKI-1 renal): > 100 µM; TGI (CCRF-CEM leukemia): > 100 µM; TGI (COLO 205 colon): 34.6 µM; TGI (DU-145 prostate): > 100 µM; TGI (EKVX NSCLC): > 100 µM; TGI (HCC-2998 colon): 37.6 µM; TGI (HCT-116 colon): > 100 µM; TGI (HCT-15 colon): > 100 µM; TGI (HL-60(TB) leukemia): 52.1 µM; TGI (HOP-62 NSCLC): > 100 µM; TGI (HOP-92 NSCLC): > 100 µM; TGI (HS 578T breast): 72.6 µM; TGI (HT29 colon): 43.1 µM; TGI (IGROV1 ovarian): > 100 µM; TGI (K-562 leukemia): > 100 µM; TGI (KM12 colon): > 100 µM; TGI (LOX IMVI melanoma): > 100 µM; TGI (M14 melanoma): 49 µM; TGI (MALME-3M melanoma): > 100 µM; TGI (MCF7 breast): 84.5 µM; TGI (MDA-MB-231 breast): 71.6 µM; TGI (MDA-MB-435): 29.7 µM; TGI (MDA-N): 34.4 µM; TGI (MOLT-4 leukemia): > 100 µM; TGI (NCI-H23 lung): > 100 µM; TGI (NCI-H460 lung): 57 µM; TGI (NCI-H522 lung): 54.2 µM; TGI (NCI/ADR-RES ovarian): 50.4 µM; TGI (OVCAR-3 ovarian): 57.2 µM; TGI (OVCAR-4 ovarian): > 100 µM; TGI (OVCAR-5 ovarian): > 100 µM; TGI (OVCAR-8 ovarian): > 100 µM; TGI (PC-3 prostate): > 100 µM; TGI (RPMI-8226 leukemia): 65.7 µM; TGI (RXF 393 renal): > 100 µM; TGI (SF-268 CNS): > 100 µM; TGI (SF-295 CNS): 72.5 µM; TGI (SK-MEL-2 melanoma): 36.2 µM; TGI (SK-MEL-28 melanoma): > 100 µM; TGI (SK-MEL-5 melanoma): 38.6 µM; TGI (SK-OV-3 ovarian): > 100 µM; TGI (SN12C renal): 99.1 µM; TGI (SNB-19 CNS): > 100 µM; TGI (SNB-75 CNS): 93.5 µM; TGI (SW-620 colon): > 100 µM; TGI (T-47D breast): > 100 µM; TGI (TK-10 renal): 70.3 µM; TGI (U251 CNS): 51.7 µM; TGI (UACC-257 melanoma): 69.2 µM; TGI (UACC-62 melanoma): 73.5 µM; TGI (UO-31 renal): > 100 µM

Question: With `CCCCn1c2c(n(CCCC)c1=S)-c1c(n(CCCC)c(=S)n1CCCC)S[Se][Se]S2` as the compound, how does the TGI (786-0 renal) read?
Answer: > 43.9 µM

Question: And the TGI (A498 renal)?
Answer: > 100 µM

Question: And the TGI (A549 NSCLC)?
Answer: > 88.7 µM

Question: And the TGI (ACHN renal)?
Answer: 14.2 µM

Question: What about the TGI (BT-549 breast) of the same compound?
Answer: 35.5 µM

Question: And the TGI (CCRF-CEM leukemia)?
Answer: > 46.6 µM

Question: And the TGI (COLO 205 colon)?
Answer: 3.87 µM

Question: What about the TGI (DU-145 prostate) of the same compound?
Answer: > 60.4 µM

Question: What about the TGI (EKVX NSCLC) of the same compound?
Answer: 24.3 µM

Question: And the TGI (HCC-2998 colon)?
Answer: 61.6 µM

Question: What about the TGI (HCT-116 colon) of the same compound?
Answer: 16.9 µM

Question: What about the TGI (HCT-15 colon) of the same compound?
Answer: 15.9 µM

Question: What about the TGI (HOP-62 NSCLC) of the same compound?
Answer: 35.1 µM

Question: What about the TGI (HOP-92 NSCLC) of the same compound?
Answer: 9.51 µM

Question: And the TGI (HS 578T breast)?
Answer: 44.2 µM

Question: What about the TGI (HT29 colon) of the same compound?
Answer: 32.5 µM

Question: What about the TGI (IGROV1 ovarian) of the same compound?
Answer: 9.16 µM

Question: And the TGI (K-562 leukemia)?
Answer: > 100 µM

Question: What about the TGI (KM12 colon) of the same compound?
Answer: > 53.5 µM

Question: And the TGI (LOX IMVI melanoma)?
Answer: 27.2 µM

Question: And the TGI (M14 melanoma)?
Answer: 31.7 µM

Question: What about the TGI (MALME-3M melanoma) of the same compound?
Answer: 5.09 µM

Question: What about the TGI (MCF7 breast) of the same compound?
Answer: > 100 µM

Question: What about the TGI (MDA-MB-231 breast) of the same compound?
Answer: 7.59 µM

Question: And the TGI (MDA-MB-435)?
Answer: 39.1 µM

Question: And the TGI (MDA-N)?
Answer: 36.3 µM

Question: And the TGI (MOLT-4 leukemia)?
Answer: > 37.2 µM

Question: And the TGI (NCI-H226 lung)?
Answer: 49.4 µM

Question: And the TGI (NCI-H23 lung)?
Answer: 41.5 µM

Question: And the TGI (NCI-H460 lung)?
Answer: > 80 µM

Question: What about the TGI (NCI-H522 lung) of the same compound?
Answer: 0.479 µM

Question: And the TGI (NCI/ADR-RES ovarian)?
Answer: 53 µM

Question: What about the TGI (OVCAR-3 ovarian) of the same compound?
Answer: 7.84 µM

Question: What about the TGI (OVCAR-4 ovarian) of the same compound?
Answer: > 37.4 µM

Question: And the TGI (OVCAR-5 ovarian)?
Answer: 6.72 µM

Question: And the TGI (OVCAR-8 ovarian)?
Answer: 29.9 µM

Question: And the TGI (PC-3 prostate)?
Answer: > 34.2 µM

Question: And the TGI (RPMI-8226 leukemia)?
Answer: > 35.3 µM

Question: And the TGI (RXF 393 renal)?
Answer: 25.4 µM

Question: What about the TGI (SF-268 CNS) of the same compound?
Answer: > 83.4 µM

Question: What about the TGI (SF-295 CNS) of the same compound?
Answer: 30.5 µM

Question: What about the TGI (SF-539 CNS) of the same compound?
Answer: 12.5 µM

Question: And the TGI (SK-MEL-2 melanoma)?
Answer: > 55.6 µM

Question: And the TGI (SK-MEL-28 melanoma)?
Answer: > 61.4 µM

Question: And the TGI (SK-MEL-5 melanoma)?
Answer: 19.6 µM

Question: What about the TGI (SK-OV-3 ovarian) of the same compound?
Answer: 55.1 µM

Question: And the TGI (SN12C renal)?
Answer: 99.1 µM

Question: What about the TGI (SNB-19 CNS) of the same compound?
Answer: > 76.4 µM

Question: And the TGI (SNB-75 CNS)?
Answer: 31.5 µM

Question: And the TGI (SR leukemia)?
Answer: > 100 µM

Question: What about the TGI (SW-620 colon) of the same compound?
Answer: 6.64 µM

Question: What about the TGI (T-47D breast) of the same compound?
Answer: 2.04 µM

Question: And the TGI (TK-10 renal)?
Answer: 30.5 µM

Question: And the TGI (U251 CNS)?
Answer: 16.9 µM

Question: And the TGI (UACC-257 melanoma)?
Answer: 30.8 µM

Question: And the TGI (UACC-62 melanoma)?
Answer: 22.3 µM

Question: What about the TGI (UO-31 renal) of the same compound?
Answer: 9.02 µM
